How the values were obtained:
[1] = organism: Rattus norvegicus; assay: Compound was tested for inhibition of glucose transport in adipocytes plasma membrane vesicles using [H]-forskolin as radioligand; format: functional
[2] = organism: Rattus norvegicus; assay: Compound was tested for inhibition of glucose transport in rat adipocyte; format: functional, organism-based
[3] = organism: Homo sapiens; assay: Compound was testd for inhibition of glucose transport human erythrocytes using [H]-forskolin as radioligand; format: functional, organism-based
[4] = organism: Homo sapiens; assay: Compound was testd for inhibition of glucose transport human platelets using [H]-forskolin as radioligand; format: functional, organism-based

Row | SMILES | EC50 [1] [µM] | Ki [2] [µM] | EC50 [3] [µM] | EC50 [4] [µM]
1 | C=C[C@@]1(C)CC(=O)[C@]2(O)[C@@]3(C)[C@@H](O)CCC(C)(C)[C@@H]3[C@H](O)[C@H](O)[C@@]2(C)O1 | 7.1 |  |  | 
2 | CC(=O)O[C@@H]1[C@@H](O)[C@H](O)[C@@H](CO)O[C@@H]1O |  | 8500 |  | 
3 | C=C[C@@]1(C)CC(=O)[C@]2(O)[C@@]3(C)[C@@H](O)CCC(C)(C)[C@@H]3[C@H](O)[C@H](OC(C)=O)[C@@]2(C)O1 [COLFORSIN] | 0.24 |  | 0.24 | 0.24
